“And” between values parts separate entries of the source, which are not always exact repeats. Equal entries are not always repeated. Inconclusive results and toxic doses are left out. Rule for the calls: active = survival T/C of 150% or more; inactive = T/C below 125% in these data.
System: BDF1 mice, B16 melanoma ip, median survival T/C
Assay: NCI In Vivo Anticancer Drug Screen. Data for tumor model B16 Melanoma (intraperitoneal) in B6D2F1 (BDF1) mice
Details: endpoint: median survival time, higher = longer survival
How it was run: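 In this screen, activity was judged from survival or tumor size in treated versus vehicle-treated tumor-bearing mice, reported as T/C.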

[1] = dose: 6.25 mg/kg/injection, schedule: Q01DX009 (ip), vehicle: saline
[2] = dose: 12.5 mg/kg/injection, schedule: Q01DX009 (ip), vehicle: saline
[3] = dose: 25.0 mg/kg/injection, schedule: Q01DX009 (ip), vehicle: saline
[4] = dose: 50.0 mg/kg/injection, schedule: Q01DX009 (ip), vehicle: saline
[5] = dose: 100.0 mg/kg/injection, schedule: Q01DX009 (ip), vehicle: saline
[6] = dose: 50.0 mg/kg/injection, schedule: Q01DX009 (ip), vehicle: saline with Tween-80
[7] = dose: 100.0 mg/kg/injection, schedule: Q01DX009 (ip), vehicle: saline with Tween-80
[8] = dose: 6.0 mg/kg/injection, schedule: Q04DX003 (ip), vehicle: Klucel (hydroxypropylcellulose) (HPC)
[9] = dose: 12.0 mg/kg/injection, schedule: Q04DX003 (ip), vehicle: Klucel (hydroxypropylcellulose) (HPC)
[10] = dose: 50.0 mg/kg/injection, schedule: Q01DX009 (ip), vehicle: Klucel (hydroxypropylcellulose) (HPC)
[11] = dose: 12.5 mg/kg/injection, schedule: Q01DX009 (ip), vehicle: saline with Tween-80
[12] = dose: 25.0 mg/kg/injection, schedule: Q01DX009 (ip), vehicle: saline with Tween-80
[13] = dose: 200.0 mg/kg/injection, schedule: Q01DX009 (ip), vehicle: saline with Tween-80
[14] = dose: 100.0 mg/kg/injection, schedule: Q01DX009 (ip), vehicle: Klucel (hydroxypropylcellulose) (HPC)
[15] = dose: 200.0 mg/kg/injection, schedule: Q01DX009 (ip), vehicle: Klucel (hydroxypropylcellulose) (HPC)
[16] = dose: 400.0 mg/kg/injection, schedule: Q01DX009 (ip), vehicle: Klucel (hydroxypropylcellulose) (HPC)

Measured: T/C

NC(=O)C1(N2CCCCC2)CCN(CCCC(=O)c2ccc(F)cc2)CC1
inactive: [1] 108 % of control | [2] 108 % of control | [3] 113 % of control | [4] 105 % of control | [5] 105 % of control

CCCC(NC(=O)C(C)Br)C(=O)O (stereo not given)
inactive: [6] 101 % of control | [7] 87 % of control

N[C@@H](Cc1ccc(N(CCCl)CCCl)cc1)C(=O)O
active: dose: 0.75 mg/kg/injection, schedule: Q01DX009 (ip), vehicle: Klucel (hydroxypropylcellulose) (HPC) 151 % of control | dose: 0.75 mg/kg/injection, schedule: Q01DX009 (ip), vehicle: saline 157 % of control | dose: 1.0 mg/kg/injection, schedule: Q01DX009 (ip), vehicle: saline with Tween-80 180 % of control | dose: 1.0 mg/kg/injection, schedule: Q01DX009 (ip), vehicle: water 176 % of control | dose: 1.2 mg/kg/injection, schedule: Q01DX009 (ip), vehicle: saline 167 % of control | dose: 1.5 mg/kg/injection, schedule: Q01DX009 (ip), vehicle: Klucel (hydroxypropylcellulose) (HPC) 188 % of control | dose: 1.5 mg/kg/injection, schedule: Q01DX009 (ip), vehicle: carboxymethylcellulose (CMC) 180 % of control | dose: 1.5 mg/kg/injection, schedule: Q01DX009 (ip), vehicle: saline 166 % of control and 197 % of control | dose: 2.0 mg/kg/injection, schedule: Q01DX009 (ip), vehicle: saline with Tween-80 254 % of control | dose: 2.0 mg/kg/injection, schedule: Q01DX009 (ip), vehicle: water 188 % of control | dose: 2.5 mg/kg/injection, schedule: Q01DX001 (ip), vehicle: Klucel (hydroxypropylcellulose) (HPC) 164 % of control | dose: 3.0 mg/kg/injection, schedule: Q01DX009 (ip), vehicle: Klucel (hydroxypropylcellulose) (HPC) 198 % of control | dose: 3.0 mg/kg/injection, schedule: Q01DX009 (ip), vehicle: saline 171 % of control and 262 % of control | dose: 3.3 mg/kg/injection, schedule: Q01DX009 (ip), vehicle: saline 218 % of control | dose: 4.0 mg/kg/injection, schedule: Q01DX009 (ip), vehicle: saline with Tween-80 200 % of control | dose: 4.0 mg/kg/injection, schedule: Q01DX009 (ip), vehicle: water 161 % of control | dose: 4.0 mg/kg/injection, schedule: Q04DX003 (ip), vehicle: saline 194 % of control | dose: 5.0 mg/kg/injection, schedule: Q01DX001 (ip), vehicle: Klucel (hydroxypropylcellulose) (HPC) 222 % of control | dose: 5.0 mg/kg/injection, schedule: Q01DX005 (ip), vehicle: saline 156 % of control | [8] 179 % of control | dose: 8.0 mg/kg/injection, schedule: Q04DX003 (ip), vehicle: saline 231 % of control | dose: 10.0 mg/kg/injection, schedule: Q01DX001 (ip), vehicle: Klucel (hydroxypropylcellulose) (HPC) 242 % of control | dose: 10.0 mg/kg/injection, schedule: Q01DX001 (ip), vehicle: water 191 % of control | dose: 10.0 mg/kg/injection, schedule: Q01DX005 (ip), vehicle: saline 194 % of control | [9] 169 % of control | dose: 16.0 mg/kg/injection, schedule: Q04DX003 (ip), vehicle: saline 169 % of control
inactive: dose: 0.06 mg/kg/injection, schedule: Q01DX009 (ip), vehicle: saline 97 % of control | dose: 0.12 mg/kg/injection, schedule: Q01DX009 (ip), vehicle: saline 102 % of control | dose: 0.25 mg/kg/injection, schedule: Q01DX009 (ip), vehicle: saline 104 % of control | dose: 0.5 mg/kg/injection, schedule: Q01DX009 (ip), vehicle: carboxymethylcellulose (CMC) 95 % of control | dose: 0.5 mg/kg/injection, schedule: Q01DX009 (ip), vehicle: water 123 % of control | dose: 1.0 mg/kg/injection, schedule: Q01DX009 (ip), vehicle: carboxymethylcellulose (CMC) 88 % of control | dose: 1.25 mg/kg/injection, schedule: Q01DX001 (ip), vehicle: water 123 % of control | dose: 2.0 mg/kg/injection, schedule: Q01DX009 (ip), vehicle: carboxymethylcellulose (CMC) 95 % of control | dose: 4.0 mg/kg/injection, schedule: Q01DX009 (ip), vehicle: carboxymethylcellulose (CMC) 94 % of control | dose: 6.0 mg/kg/injection, schedule: Q01DX009 (ip), vehicle: carboxymethylcellulose (CMC) 106 % of control and 117 % of control | dose: 6.0 mg/kg/injection, schedule: Q01DX009 (ip), vehicle: saline 118 % of control

CNCc1ccccc1C(O)c1ccc(Cl)cc1 (stereo not given)
inactive: dose: 6.25 mg/kg/injection, schedule: Q01DX009 (ip), vehicle: Klucel (hydroxypropylcellulose) (HPC) 102 % of control | dose: 12.5 mg/kg/injection, schedule: Q01DX009 (ip), vehicle: Klucel (hydroxypropylcellulose) (HPC) 100 % of control | dose: 25.0 mg/kg/injection, schedule: Q01DX009 (ip), vehicle: Klucel (hydroxypropylcellulose) (HPC) 97 % of control | [10] 102 % of control

OCC1OC(n2cnc3cc(Cl)c(Cl)cc32)C(O)C1O (stereo not given)
inactive: dose: 6.25 mg/kg/injection, schedule: Q01DX009 (ip), vehicle: saline with Tween-80 101 % of control and 117 % of control | [11] 100 % of control and 104 % of control and 113 % of control | [12] 97 % of control and 113 % of control and 114 % of control | [6] 107 % of control and 116 % of control | [7] 102 % of control and 121 % of control

C[n+]1noc([O-])c1-c1ccccc1
inactive: [6] 101 % of control | [7] 97 % of control | [13] 103 % of control

COCCN1CCC(C)(CO)C1 (stereo not given)
inactive: [5] 106 % of control | dose: 200.0 mg/kg/injection, schedule: Q01DX009 (ip), vehicle: saline 100 % of control | dose: 400.0 mg/kg/injection, schedule: Q01DX009 (ip), vehicle: saline 93 % of control

O=C(C[n+]1ccc2ccccc2c1)c1ccccc1
inactive: [2] 86 % of control | [3] 86 % of control | [4] 100 % of control

[N-]=C(CC(=O)c1ccccc1)c1ccccc1.[N-]=C(CC(=O)c1ccccc1)c1ccccc1.[Ni+2]
inactive: dose: 3.0 mg/kg/injection, schedule: Q04DX003 (ip), vehicle: Klucel (hydroxypropylcellulose) (HPC) 86 % of control | [8] 93 % of control | [9] 88 % of control

Cc1ccc(Cl)cc1NC(=O)c1ccc(Cl)cc1
inactive: [14] 94 % of control | [15] 101 % of control | [16] 116 % of control

CN(C)CCCN1c2ccccc2Sc2c(Cl)cc(Cl)cc21
inactive: dose: 3.12 mg/kg/injection, schedule: Q01DX009 (ip), vehicle: saline 97 % of control | [1] 105 % of control | [2] 102 % of control | [3] 87 % of control

CC(=O)C(O)N1C(=O)C=CC1=O (stereo not given)
inactive: dose: 0.32 mg/kg/injection, schedule: Q01DX009 (ip), vehicle: saline with Tween-80 100 % of control | dose: 0.63 mg/kg/injection, schedule: Q01DX009 (ip), vehicle: saline with Tween-80 108 % of control | dose: 1.25 mg/kg/injection, schedule: Q01DX009 (ip), vehicle: saline with Tween-80 111 % of control | dose: 2.5 mg/kg/injection, schedule: Q01DX009 (ip), vehicle: saline with Tween-80 105 % of control | dose: 5.0 mg/kg/injection, schedule: Q01DX009 (ip), vehicle: saline with Tween-80 105 % of control

COc1ccc(COC(=O)CN2C(=O)c3ccccc3C2=O)cc1
inactive: [14] 105 % of control | [15] 107 % of control | [16] 100 % of control

O=C1c2ccccc2C(=O)c2c3c(cc(NCCNCCO)c21)N(CCO)CCN3
inactive: dose: 12.5 mg/kg/injection, schedule: Q01DX009 (ip), vehicle: DMSO 121 % of control
active: dose: 100.0 mg/kg/injection, schedule: Q01DX009 (ip), vehicle: DMSO 162 % of control | dose: 200.0 mg/kg/injection, schedule: Q01DX009 (ip), vehicle: DMSO 194 % of control

CSCCC(NC(=O)OCC1c2ccccc2-c2ccccc21)C(=O)O (stereo not given)
inactive: [10] 103 % of control | [14] 98 % of control | [15] 87 % of control

CCCCCCCCCCCC(=O)CCC
inactive: [14] 93 % of control | [15] 91 % of control | [16] 90 % of control

COC(=O)C(Cl)(Cl)N=Nc1c(Cl)cc(Cl)c(C)c1Cl
inactive: [11] 112 % of control | [12] 106 % of control | [6] 111 % of control | [7] 99 % of control | [13] 97 % of control

NC(=O)Nc1n[nH]c(-c2ccccc2)n1
inactive: [3] 99 % of control | [4] 99 % of control | [5] 86 % of control

Cc1ccc(Oc2ccc3cc[n+](C)cc3c2)cc1
inactive: [1] 98 % of control | [2] 100 % of control | [3] 86 % of control

From PubChem BioAssay AID192 (DTP/NCI, 2004)
